According to US20220204498A1, “PYRIDO-PYRIMIDINYL COMPOUNDS AND METHODS OF USE” (Genentech, Inc., priority 2019, published 2022):
Counter-ions that a name gives are not always drawn.

Target: T1, IRE1α (Homo sapiens, UniProt O75460, D688N)
T1 construct: containing the kinase and RNase domains (KR, AA G547-1L977, D688N); made in house; host or cells: Sf9 insect cells
Experiment: IRE1α TR-FRET competition binding assay (IRE1α HTRF)
Settings: His-tagged IRE1α kinase dead construct (KR, D688N) 0.25 nM; Alexa fluor 647-labeled ATP competitive probe 2 nM; one hour at room temperature; read-out: IRE1α (alpha) HTRF (IC50)
Method: Example 59. IRE1α TR-FRET Competition Binding Assay
To determine the affinity of compound binding to the kinase domain of IRE1α, a time-resolved fluorescence resonance energy transfer (TR-FRET) competition assay was used.
A His-tagged IRE1α kinase dead construct containing the kinase and RNase domains (KR, AA G547-1L977, D688N) was expressed in Sf9 insect cells. The purified protein (final concentration 0.25 nM) was pre-incubated with anti-His Europium labeled antibody (Life Technologies PV5596, final concentration 2 nM) for one hour at 4° C. in TR-FRET Assay Buffer (50 mM HEPES, pH 7.5, 10 mM MgCl2, 0.083 mM Brij 35, 1 mM DTT, and 0.1% bovine gamma globulin) prior to addition to test compounds. An Alexa fluor 647-labeled probe based on an ATP competitive inhibitor was added to a final concentration of 2 nM. Reactions were carried out for one hour at room temperature in a final volume of 20 μL in 384 well white ProxiPlates (Perkin Elmer 6008289). Binding of the probe to the IRE1α protein was detected in an Envision instrument (PerkinElmer) equipped with a TRF laser option and a LANCE/Delfia Dual/Bias D400/D630 mirror (Ex 347 nm, 1st Em 665 nm, 2nd Em 615 nm).

T1 sequence (O75460 547-977 D688N): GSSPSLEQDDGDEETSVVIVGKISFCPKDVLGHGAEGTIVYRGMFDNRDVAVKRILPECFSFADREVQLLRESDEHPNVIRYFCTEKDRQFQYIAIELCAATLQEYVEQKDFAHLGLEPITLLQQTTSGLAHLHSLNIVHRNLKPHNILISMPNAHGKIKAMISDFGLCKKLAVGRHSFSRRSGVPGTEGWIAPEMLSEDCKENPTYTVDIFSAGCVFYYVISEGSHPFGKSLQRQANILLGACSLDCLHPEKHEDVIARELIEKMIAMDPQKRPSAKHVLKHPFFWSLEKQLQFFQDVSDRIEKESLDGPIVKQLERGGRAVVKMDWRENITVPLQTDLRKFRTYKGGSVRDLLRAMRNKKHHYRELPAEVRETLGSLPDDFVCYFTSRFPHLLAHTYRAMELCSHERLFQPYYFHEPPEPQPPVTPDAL

Compound	IC50 [nM]
Cc1cc(-c2ccc(NS(=O)(=O)Cc3ccc(F)cc3)c(F)c2)nc2cnc(N[C@@H]3CNC[C@@H](F)C3)nc12 [Compound 121, N-(2-Fluoro-4-(2-(((3S,5S)-5-fluoropiperidin-3-yl)amino)-8-methylpyrido[3,2-d]pyrimidin-6-yl)phenyl)-1-(4-fluorophenyl)methanesulfonamide formate]	0.27
CCc1cc(-c2ccc(NS(=O)(=O)Cc3ccccc3)c(F)c2)nc2cnc(N[C@@H]3CNC[C@@H](F)C3)nc12 [Compound 122, N-(4-(8-Ethyl-2-(((3S,5S)-5-fluoropiperidin-3-yl)amino)pyrido[3,2-d]pyrimidin-6-yl)-2-fluorophenyl)-1-phenylmethanesulfonamide formate]	0.2
CCc1cc(-c2ccc(NS(=O)(=O)c3ccccc3Cl)c(F)c2)nc2cnc(N[C@@H]3CNC[C@@H](F)C3)nc12 [Compound 123, 2-Chloro-N-(4-(8-ethyl-2-(((3S,5S)-5-fluoropiperidin-3-yl)amino)pyrido[3,2-d]pyrimidin-6-yl)-2-fluorophenyl)benzenesulfonamide formate]	0.18
CC(C)c1cc(-c2ccc(NS(=O)(=O)CCC(F)(F)F)c(F)c2)nc2cnc(N[C@H]3CC[C@H](N(C)C)CC3)nc12 [Compound 124, N-(4-(2-(((1,4-trans)-4-(Dimethylamino)cyclohexyl)amino)-8-isopropylpyrido[3,2-d]pyrimidin-6-yl)-2-fluorophenyl)-3,3,3-trifluoropropane-1-sulfonamide]	0.16
Cc1cc(-c2ccc(NS(=O)(=O)CCC(F)(F)F)nc2)nc2cnc(N[C@H]3CC[C@H](N(C)C)CC3)nc12 [Compound 125, N-(5-(2-(((1,4-trans)-4-(Dimethylamino)cyclohexyl)amino)-8-methylpyrido[3,2-d]pyrimidin-6-yl)pyridin-2-yl)-3,3,3-trifluoropropane-1-sulfonamide]	0.44
Cc1nc(NS(=O)(=O)CCC(F)(F)F)ccc1-c1cc(C)c2nc(N[C@H]3CC[C@H](N(C)C)CC3)ncc2n1 [Compound 126, N-(5-(2-(((1,4-trans)-4-(Dimethylamino)cyclohexyl)amino)-8-methylpyrido[3,2-d]pyrimidin-6-yl)-6-methylpyridin-2-yl)-3,3,3-trifluoropropane-1-sulfonamide]	18
Cc1cc(-c2ccc(NC(=O)CC(C)C)c(F)c2)nc2cnc(N[C@H]3CC[C@H](N(C)C)CC3)nc12 [Compound 127, N-(4-(2-(((1,4-trans)-4-(Dimethylamino)cyclohexyl)amino)-8-methylpyrido[3,2-d]pyrimidin-6-yl)-2-fluorophenyl)-3-methylbutanamide]	140
Cc1cc(-c2ccc(NS(=O)(=O)c3ccccc3Cl)c(F)c2)nc2cnc(N[C@H]3CC[C@H](N(C)C)CC3)nc12 [Compound 128, 2-Chloro-N-(4-(2-(((1,4-trans)-4-(dimethylamino)cyclohexyl)amino)-8-methylpyrido[3,2-d]pyrimidin-6-yl)-2-fluorophenyl)benzenesulfonamide]	0.16
Cc1cc(-c2ccc(NS(=O)(=O)Cc3ccc(F)cc3)c(F)c2)nc2cnc(N[C@H]3CC[C@H](N(C)C)CC3)nc12 [Compound 129, N-(4-(2-(((1,4-trans)-4-(Dimethylamino)cyclohexyl)amino)-8-methylpyrido[3,2-d]pyrimidin-6-yl)-2-fluorophenyl)-1-(4-fluorophenyl)methanesulfonamide]	0.08
CN(C)[C@H]1CC[C@H](Nc2ncc3nc(-c4ccc(NS(=O)(=O)Cc5ccc(F)cc5)c(F)c4)cc(CF)c3n2)CC1 [Compound 130, N-[4-[2-[[(1,4-trans)-4-(Dimethylamino)cyclohexyl]amino]-8-(fluoromethyl)pyrido[3,2-d]pyrimidin-6-yl]-2-fluoro-phenyl]-1-(4-fluorophenyl)methanesulfonamide]	0.2
CN(C)[C@H]1CC[C@H](Nc2ncc3nc(-c4ccc(NS(=O)(=O)Cc5ccc(F)cc5)c(F)c4)cc(C(F)F)c3n2)CC1 [Compound 131, N-1,4-trans-[4-[8-(Difluoromethyl)-2-[[4-(dimethylamino)cyclohexyl]amino]pyrido[3,2-d]pyrimidin-6-yl]-2-fluoro-phenyl]-1-(4-fluorophenyl)methanesulfonamide]	0.15
Cc1cc(-c2ccc(NS(=O)(=O)Cc3ccc(F)cc3)c(F)c2F)nc2cnc(N[C@H]3CC[C@H](N(C)C)CC3)nc12 [Compound 132, N-(4-(2-(((1,4-trans)-4-(Dimethylamino)cyclohexyl)amino)-8-methylpyrido[3,2-d]pyrimidin-6-yl)-2,3-difluorophenyl)-1-(4-fluorophenyl)methanesulfonamide]	0.23
Cc1nc(NS(=O)(=O)Cc2ccc(F)cc2)ccc1-c1cc(C(F)F)c2nc(N[C@H]3CC[C@H](N(C)C)CC3)ncc2n1 [Compound 133, N-(5-(8-(Difluoromethyl)-2-(((1,4-trans)-4-(dimethylamino)cyclohexyl)amino)pyrido[3,2-d]pyrimidin-6-yl)-6-methylpyridin-2-yl)-1-(4-fluorophenyl)methanesulfonamide]	5.2
CCc1cc(-c2ccc(NS(=O)(=O)c3ccccc3Cl)nc2C)nc2cnc(N[C@H]3CC[C@H](N(C)C)CC3)nc12 [Compound 134, 2-Chloro-N-(5-(2-(((1,4-trans)-4-(dimethylamino)cyclohexyl)amino)-8-ethylpyrido[3,2-d]pyrimidin-6-yl)-6-methylpyridin-2-yl)benzenesulfonamide]	0.33
Cc1cc(-c2ccc(NS(=O)(=O)c3ccccc3Cl)nc2)nc2cnc(N[C@H]3CC[C@H](N(C)C)CC3)nc12 [Compound 135, 2-Chloro-N-(5-(2-(((1,4-trans)-4-(dimethylamino)cyclohexyl)amino)-8-methylpyrido[3,2-d]pyrimidin-6-yl)pyridin-2-yl)benzenesulfonamide]	0.32
Cc1nc(NS(=O)(=O)c2ccccc2Cl)ccc1-c1cc(C)c2nc(N[C@@H]3CNC[C@@H](F)C3)ncc2n1 [Compound 136, 2-Chloro-N-(5-(2-(((3S,5S)-5-fluoropiperidin-3-yl)amino)-8-methylpyrido[3,2-d]pyrimidin-6-yl)-6-methylpyridin-2-yl)benzenesulfonamide]	14
Cc1cc(-c2cc(F)c(NS(=O)(=O)Cc3ccc(F)cc3)cc2F)nc2cnc(N[C@H]3CC[C@H](N(C)C)CC3)nc12 [Compound 137, N-(4-(2-(((1,4-trans)-4-(Dimethylamino)cyclohexyl)amino)-8-methylpyrido[3,2-d]pyrimidin-6-yl)-2,5-difluorophenyl)-1-(4-fluorophenyl)methanesulfonamide]	0.23
COCc1cc(-c2ccc(NS(=O)(=O)Cc3ccc(F)cc3)c(F)c2)nc2cnc(N[C@H]3CC[C@H](N(C)C)CC3)nc12 [Compound 138, N-(4-(2-(((1,4-trans)-4-(Dimethylamino)cyclohexyl)amino)-8-(methoxymethyl)pyrido[3,2-d]pyrimidin-6-yl)-2-fluorophenyl)-1-(4-fluorophenyl)methanesulfonamide]	0.21
O=S(=O)(Cc1ccc(F)cc1)Nc1ccc(-c2cc(C(F)F)c3nc(N[C@@H]4CNC[C@@H](F)C4)ncc3n2)cc1F [Compound 139, N-[4-[8-(Difluoromethyl)-2-[[(3S,5S)-5-fluoro-3-piperidyl]amino]pyrido[3,2-d]pyrimidin-6-yl]-2-fluoro-phenyl]-1-(4-fluorophenyl)methanesulfonamide hydrochloride]	0.23
Cc1cc(-c2c(F)cc(NS(=O)(=O)Cc3ccc(F)cc3)cc2F)nc2cnc(N[C@H]3CC[C@H](N(C)C)CC3)nc12 [Compound 140, N-(4-(2-(((1,4-trans)-4-(Dimethylamino)cyclohexyl)amino)-8-methylpyrido[3,2-d]pyrimidin-6-yl)-3,5-difluorophenyl)-1-(4-fluorophenyl)methanesulfonamide]	4.5
CCc1cc(-c2ccc(NS(=O)(=O)c3ccccc3Cl)nc2OC)nc2cnc(N[C@H]3CC[C@H](N(C)C)CC3)nc12 [Compound 141, 2-Chloro-N-(5-(2-(((1,4-trans)-4-(dimethylamino)cyclohexyl)amino)-8-ethylpyrido[3,2-d]pyrimidin-6-yl)-6-methoxypyridin-2-yl)benzenesulfonamide]	0.43
CCc1cc(-c2ccc(NS(=O)(=O)Cc3ccc(F)cc3)nc2OC)nc2cnc(N[C@H]3CC[C@H](N(C)C)CC3)nc12 [Compound 142, N-(5-(2-(((1,4-trans)-4-(Dimethylamino)cyclohexyl)amino)-8-ethylpyrido[3,2-d]pyrimidin-6-yl)-6-methoxypyridin-2-yl)-1-(4-fluorophenyl)methanesulfonamide]	0.14
CN(C)[C@H]1CC[C@H](Nc2ncc3nc(-c4ccc(NS(=O)(=O)c5ccccc5Cl)c(F)c4)cc(C(F)F)c3n2)CC1 [Compound 143, 2-Chloro-N-[(1,4-trans)-4-[8-(difluoromethyl)-2-[[4-(dimethylamino)cyclohexyl]amino]pyrido[3,2-d]pyrimidin-6-yl]-2-fluoro-phenyl]benzenesulfonamide]	0.2
